Data set [1] deals with T1, human 15-LO (Homo sapiens, UniProt P16050).
T1 construct: made in house; host or cells: Sf9 insect cells (baculovirus, Bac-to-Bac)
T1 sequence (P16050 1-662): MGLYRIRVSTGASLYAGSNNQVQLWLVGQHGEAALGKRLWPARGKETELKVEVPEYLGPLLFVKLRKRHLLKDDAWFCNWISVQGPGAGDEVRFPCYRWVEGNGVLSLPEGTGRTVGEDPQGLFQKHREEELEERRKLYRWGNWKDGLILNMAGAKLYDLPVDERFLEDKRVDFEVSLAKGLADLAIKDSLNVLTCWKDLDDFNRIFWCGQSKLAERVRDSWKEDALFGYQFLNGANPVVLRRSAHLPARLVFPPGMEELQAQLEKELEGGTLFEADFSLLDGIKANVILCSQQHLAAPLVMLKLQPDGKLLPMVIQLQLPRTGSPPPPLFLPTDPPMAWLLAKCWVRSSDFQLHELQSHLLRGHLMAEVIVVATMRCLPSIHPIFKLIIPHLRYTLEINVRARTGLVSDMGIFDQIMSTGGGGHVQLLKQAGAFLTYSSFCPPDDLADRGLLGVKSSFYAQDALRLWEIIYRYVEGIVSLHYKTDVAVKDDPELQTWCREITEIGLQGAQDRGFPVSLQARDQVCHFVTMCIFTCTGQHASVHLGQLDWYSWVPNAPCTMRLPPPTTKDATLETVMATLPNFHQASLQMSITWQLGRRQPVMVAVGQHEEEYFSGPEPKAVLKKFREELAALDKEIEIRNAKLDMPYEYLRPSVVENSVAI
The data set can be described thus: Human Lysate 15-LO Assay (HUM15LO). The format is biochemical. The note with it: recombinant human 15-LO, 174 μM linoleic acid, 15 minutes at 4° C., 13-HODE quantitated. As for the experimental part:
In the HUM15LO assay, a test compound of the present invention was incubated with 15-LO enzyme in the presence of the linoleic acid substrate. For example, a known amount of a test compound of the present invention, 100 μL of human 15-LO, and 174 μM linoleic acid in PBS containing 0.2% sodium cholate were incubated for 15 minutes at 4° C. The reaction was stopped with 100 μL of mobile phase and 10 μL of triethyl phosphite. […] 13-HODE was quantitated by comparing peak areas of individual samples with those from a standard curve generated using authentic 13-HODE. The test reaction is compared to a control reaction, which is identical to the test reaction except no test compound of the present invention is present Percent inhibition is calculated as the amount of 13-HODE produced by the test reaction divided by the amount of 13-HODE produced by the control reaction, expressed as a percent.
Human 15-LO was generated in a recombinant 15-lipoxygenase bacculovirus expression system, using Gibco/BRL/Life Technologies' Bac-to-Bac expression reagents; T4 DNA ligase, Kanamycin, Gentamicin, tetracycline, penicillin, streptomycin, Bluo-gal, IPTG, DH10Bac competent cells, SOC, LB medium, Sf-900 II SFM media, Sf9 insect cells, Cell Fectin, and EcoRI, BamHI and KpnI restriction enzymes.

Consider `COC(=O)COC(=O)NS(=O)(=O)Nc1cc(-c2cc3cc(F)c(F)cc3[nH]2)ccc1OC` (hydrate or solvate) [Example 43, Acetic Acid, [[[[[[5-(5,6-difluoro-1H-indol-2-yl)-2-methoxyphenyl]amino]-sulfonyl]amino]carbonyl]oxy]-, Methyl ester], for which the melting point was in the range of 190 to 192 °C.

For the molecule `COC(=O)COC(=O)NS(=O)(=O)Nc1cc(C(=O)Nc2ccc(F)c(F)c2)ccc1OC` [Example 44, Acetic Acid, [[[[[[5-[[(3,4-difluorophenyl)amino]carbonyl]-2-methoxyphenyl]-amino]sulfonyl]amino]carbonyl]oxy]-, Methyl ester], the melting point lay within 177 to 180 °C. Also, the IC50 in data set [1] amounted to 236 nM.

The molecule `COc1ccc(C(=O)Nc2ccc(F)c(F)c2)cc1NS(=O)(=O)NC(=O)OCCc1ccccc1` (hydrate or solvate) [Example 41] yielded a melting point of 173 to 177 °C.

With `COc1ccc(C(=O)Nc2ccc(F)c(F)c2)cc1NS(=O)(=O)NC(=O)OCCN1C(=O)c2ccccc2C1=O` [Example 56, Carbamic Acid, [[[5-[[(3,4-difluorophenyl)amino]carbonyl]-2-methoxyphenyl]amino]sulfonyl]-, 2-(1,3-dihydro-1,3-dioxo-2H-isoindol-2-yl)ethyl ester], the melting point lay within 203 to 205 °C. For the same molecule, in data set [1], the half-inhibitory concentration (IC50) is 341 nM.

On to `COc1ccc(-c2cc3cc(F)c(F)cc3[nH]2)cc1NS(=O)(=O)NC(=O)OCCOC(C)C` (hydrate or solvate) [Example 34, Carbamic Acid, [[[5-(5,6-difluoro-IH-indol-2-yl)-2-methoxyphenyl]amino]-sulfonyl]-2(1-methylethoxy)ethyl Ester], for which the melting point is 158 to 163 °C.

The molecule `COc1ccc(C(=O)Nc2ccc(F)c(F)c2)cc1NS(=O)(=O)NC(=O)Nc1ccc(Cl)cc1` [Example 68, Benzamide, 3-[[[[[(4-chlorophenyl)amino]carbonyl]amino]sulfonyl]amino]-N-(3,4-difluorophenyl)-4-methoxy] came in with a melting point of 195 to 198 °C. In addition, the IC50 in data set [1] turned out to be 359 nM.

`CCOCCOC(=O)NS(=O)(=O)Nc1cc(C(=O)Nc2ccc(F)c(F)c2)ccc1OC` [Example 48, Carbamic Acid, [[[5[[(3,4-difluorophenyl)amino]carbonyl]-2-methoxyphenyl]amino]sulfonyl]-, 2-ethoxyethyl ester] showed a melting point of 179 to 182 °C. In data set [1], the IC50 turned out to be 306 nM.

For the molecule `COc1ccc(-c2cc3cc(F)c(F)cc3[nH]2)cc1NS(=O)(=O)NC(=O)OC(C)(C)C` (hydrate or solvate) [Example 53, Carbamic Acid, [[[5-(5,6-difluoro-indol-2-yl)-2-methoxyphenyl]amino]-sulfonyl]-, 1,1-dimethylethyl ester], the melting point is 158 to 160 °C.

On to `COc1ccc(C(=O)Nc2ccc(F)c(F)c2)cc1NS(=O)(=O)NC(=O)OCCCO` [Example 46, Carbamic Acid, [[[5-[[(3,4-difluorophenyl)amino]carbonyl]-2-methoxyphenyl]amino]sulfonyl]-, 3-hydroxypropyl ester], for which the melting point was 178 to 179 °C. Moreover, the IC50 in data set [1] was determined as 830 nM.

Regarding `COc1ccc(-c2cc3cc(F)c(F)cc3[nH]2)cc1NS(=O)(=O)NC(=O)OCCc1ccccc1` (hydrate or solvate) [Example 40, Carbamic Acid, [[[5-(5,6-difluoro-IH-indol-2-yl)-2-methoxyphenyl]amino]-sulfonyl]-2-phenylethyl ester], the melting point was in the range of 180 to 182 °C.

Molecule `COc1ccc(C(=O)Nc2ccc(F)c(F)c2)cc1NS(=O)(=O)NC(=O)OC(C)(C)C` [Example 58, Carbamic acid, [[[5-[[(3,4-difluorophenyl)amino]carbonyl]-2-methoxyphenyl]amino]sulfonyl]-, 1,1-dimethylethyl ester] yielded a melting point of 193 to 194 °C. The IC50 in data set [1] is 751 nM.

`COc1ccc(C(=O)Nc2ccc(F)c(F)c2)cc1NS(=O)(=O)NC(=O)Nc1ccc(C(C)(C)C)cc1` (hydrate or solvate) [Example 59, Benzamide, N-(3,4-difluorophenyl)-3-[[[[[[4-(1,1-dimethylethyl)phenyl]-amino]carbonyl]amino]sulfonyl]amino]-4-methoxy] showed a melting point of 199 to 202 °C.

`COc1ccc(C(=O)Nc2ccc(F)c(F)c2)cc1NS(=O)(=O)NC(=O)Nc1cccc([N+](=O)[O-])c1` (hydrate or solvate) [Example 60, Benzamide, N-(3,4-difluorophenyl)-4-methoxy-3-[[[[[(3-nitrophenyl) -amino]carbonyl]amino]sulfonyl]amino]]: the melting point was 206 to 208 °C.

As for `COc1ccc(C(=O)Nc2ccc(F)c(F)c2)cc1NS(=O)(=O)NC(=O)Nc1cc(C(F)(F)F)cc(C(F)(F)F)c1` (hydrate or solvate) [Example 62, Benzamide, 3-[[[[[[3,5-bis(trifluoromethyl)phenyl]amino]-carbonyl]amino]-sulfonyl]amino]-N-(3,4-difluorophenyl)-4-methoxy], the melting point fell in the range of 175 to 178 °C.

The molecule `COc1ccc(C(=O)Nc2ccc(F)c(F)c2)cc1NS(=O)(=O)NC(=O)Nc1cccc(C(F)(F)F)c1` [Example 64, Benzamide, N-(3,4-difluorophenyl)methoxy-3-[[[[[[3-(trifluoromethyl)phenyl]amino]carbonyl]amino]sulfonyl]amino]] displayed a melting point of 198 to 200 °C. For the same molecule, the IC50 in data set [1] amounted to 24 nM.

`COc1ccc(C(=O)Nc2ccc(F)c(F)c2)cc1NS(=O)(=O)NC(=O)OCC(C)C` [Example 23, Carbamic Acid, [[(5-[[(3,4-difluorophenyl)amino]carbonyl]-2-methoxyphenyl]amino]sulfonyl]-, 2-methylpropyl ester] showed a melting point of 188 to 190 °C.

The term melting point denotes the temperature, or range, at which the solid turns liquid. One may read the IC50 as the concentration at which inhibition is half-maximal.
